The target of this assay is T1, Human TRPC6 (Homo sapiens, UniProt Q9Y210).
T1 construct: expressed in transfected cells
T1 sequence (Q9Y210 1-931): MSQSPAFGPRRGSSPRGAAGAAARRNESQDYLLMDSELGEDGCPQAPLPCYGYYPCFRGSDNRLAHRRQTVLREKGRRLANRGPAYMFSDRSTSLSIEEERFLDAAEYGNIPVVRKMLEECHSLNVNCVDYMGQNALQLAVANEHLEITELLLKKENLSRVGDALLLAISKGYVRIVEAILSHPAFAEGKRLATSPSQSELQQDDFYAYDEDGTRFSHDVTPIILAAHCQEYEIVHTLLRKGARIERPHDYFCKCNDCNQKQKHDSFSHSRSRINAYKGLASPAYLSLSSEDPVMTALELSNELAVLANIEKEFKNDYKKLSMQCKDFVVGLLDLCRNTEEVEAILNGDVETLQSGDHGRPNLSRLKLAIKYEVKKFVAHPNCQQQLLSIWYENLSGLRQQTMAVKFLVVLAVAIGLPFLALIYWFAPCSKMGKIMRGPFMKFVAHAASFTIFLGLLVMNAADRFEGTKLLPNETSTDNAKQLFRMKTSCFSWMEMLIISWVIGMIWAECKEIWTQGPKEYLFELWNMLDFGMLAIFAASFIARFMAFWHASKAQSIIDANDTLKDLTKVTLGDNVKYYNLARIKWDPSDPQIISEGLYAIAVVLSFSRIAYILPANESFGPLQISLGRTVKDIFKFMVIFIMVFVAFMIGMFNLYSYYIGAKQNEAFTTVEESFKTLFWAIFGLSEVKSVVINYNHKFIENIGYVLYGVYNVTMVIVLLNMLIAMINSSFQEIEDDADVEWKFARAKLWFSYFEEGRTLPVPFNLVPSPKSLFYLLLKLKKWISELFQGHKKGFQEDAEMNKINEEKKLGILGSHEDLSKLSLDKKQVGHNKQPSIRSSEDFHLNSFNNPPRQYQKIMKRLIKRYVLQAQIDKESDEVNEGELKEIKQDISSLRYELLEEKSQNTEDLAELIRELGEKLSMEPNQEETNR
Briefly: Evaluation of TRPC6 channel inhibitory activity (1), FLIPR Calcium 5 Assay Kit, OAG stimulation (Compound Nos. 1-1293). The note with it: Human TRPC6 stably-expressing cells, OAG 30 μM, FLIPR Calcium 5 Assay Kit; read-out: Inhibitory activity (pIC50 class) (converted). The class given is cell-based. Summed up:
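Calcium influx read by FLIPR fluorescence in cells stably expressing human TRPC6, dye-loaded 30 min. Compounds preincubated 20 min, then OAG stimulation at 30 μM final. Inhibition fitted by four-parameter logistic regression to give pIC50, reported as +/++/+++ categories.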
`Cc1nc(Oc2cc(C#N)ccc2-c2ccc([C@H](O)CN)cn2)cc(N2CCCCC2)n1` [compound 509, 4-[5-[(1S)-2-amino-1-hydroxyethyl]pyridin-2-yl]-3-(2-methyl-6-piperidin-1-ylpyrimidin-4-yl)oxybenzonitrile]: the IC50 is under 10 nM.

Turning to `Cc1nc(C2CCOCC2)cn1Cc1cc(C#N)ccc1-c1ccc(CN)cn1` [compound 1163, 4-[5-(aminomethyl)pyridin-2-yl]-3-[[2-methyl-4-(oxan-4-yl)imidazol-1-yl]methyl]benzonitrile], the IC50 was 10 to 1000 nM.

With `Cn1nc(-c2cccc(F)c2)cc1Oc1cc(C#N)ccc1-c1ccc(CCN)nc1` [Compound 187, 4-[6-(2-aminoethyl)pyridin-3-yl]-3-[5-(3-fluorophenyl)-2-methylpyrazol-3-yl]oxybenzonitrile], the IC50 is under 10 nM.

On to `Cn1nc(N2CCCCC2)cc1Oc1cc(C#N)ccc1-c1ccc([C@H](O)CN)cn1` [compound 544, 4-[5-[(1S)-2-amino-1-hydroxyethyl]pyridin-2-yl]-3-(2-methyl-5-pipeddin-1-ylpyrazol-3-yl)oxybenzonitrile], for which the IC50 was under 10 nM.

As to `N#Cc1ccc(-c2ncc(CCN)cn2)c(Sc2cnnc(N3CCCCC3)c2)c1` [compound 1258, 4-[5-(2-aminoethyl)pyrimidin-2-yl]-3-(6-piperidin-1-ylpyridazin-4-yl)sulfanylbenzonitrile], the IC50 was under 10 nM.

As for `N#Cc1ccc(-c2ncc(CCN)cn2)c(C(=O)c2sc(N3CCOCC3)nc2C(F)(F)F)c1` [compound 1078, 4-[5-(2-aminoethyl)pyrimidin-2-yl]-3-[2-morpholin-4-yl-4-(trifluoromethyl)-1,3-thiazole-5-carbonyl]benzonitrile], the IC50 is under 10 nM.

With `Cc1nc(Oc2cc(C#N)ccc2-c2ncc(CCN)cn2)cc(OC2CC2)n1` [compound 892, 4-[5-(2-aminoethyl)pyrimidin-2-yl]-3-(6-cyclopropyloxy-2-methylpyrimidin-4-yl)oxybenzonitrile], the IC50 was 10 to 1000 nM.

With `N#Cc1ccc(-c2ncc(CCN)cn2)c(Oc2nnc(N3CCCCC3)s2)c1` [compound 704, 4-[5-(2-aminoethyl)pyrimidin-2-yl]-3-[(5-piperidin-1-yl-1,3,4-thiadiazol-2-yl)oxy]benzonitrile], the IC50 was under 10 nM.

Turning to `Cc1cnc(N2CCOCC2)cc1Oc1cc(C#N)ccc1-c1ncc(CN)cn1` [compound 901, 4-[5-(aminomethyl)pyrimidin-2-yl]-3-(5-methyl-2-morpholin-4-ylpyridin-4-yl)oxybenzonitrile], the IC50 was over 1000 nM.

For `Cn1nc(-c2ccccc2)cc1Oc1cc(C#N)ccc1-n1cc(N2CCNCCC2=O)cn1` [Compound 219, 3-(2-Methyl-5-phenylpyrazol-3-yl)oxy-4-[4-(7-oxo-1,4-diazepan-1-yl)pyrazol-1-yl]benzonitrile], the IC50 is 10 to 1000 nM.

Turning to `Cc1nc(Oc2cc(C#N)ccc2-n2cc([C@@H](O)CN)cn2)cc(N2CCC(F)(F)CC2)n1` [Compound 256, 4-[4-[(1R)-2-amino-1-hydroxyethyl]pyrazol-1-yl]-3-[6-(4,4-difluoropiperidin-1-yl)-2-methylpyrimidin-4-yl]oxybenzonitrile], the IC50 was 10 to 1000 nM.

Consider `Cc1nc(-c2cncc(F)c2)cn1Cc1cc(C#N)ccc1-c1ncc(CN)cn1` [compound 1192, 4-[5-(aminomethyl)pyrimidin-2-yl]-3-[[4-(5-fluoropyridin-3-yl)-2-methylimidazol-1-yl]methyl]benzonitrile], for which the IC50 was over 1000 nM.

Consider `Cc1nc(Oc2cc(C#N)ccc2-c2ncc(CCN)cn2)cc(N2CCCC2)n1` [compound 448, 4-[5-(2-aminoethyl)pyrimidin-2-yl]-3-(2-methyl-6-pyrrolidin-1-ylpyrimidin-4-yl)oxybenzonitrile], for which the IC50 was under 10 nM.

With `Cc1nc(Oc2cc(C#N)ccc2-c2ncc(CN)cn2)cc(O[C@@H]2CCOC2)n1` [compound 844, 4-[5-(aminomethyl)pyrimidin-2-yl]-3-[2-methyl-6-[(3R)-oxolan-3-yl]oxypyrimidin-4-yl]oxybenzonitrile], the IC50 was over 1000 nM.

Consider `Cn1nc(C2CC2)cc1Oc1cc(C#N)ccc1-c1ccc(CN)nc1` [compound 331, 4-[6-(aminomethyl)pyridin-3-yl]-3-(5-cyclopropyl-2-methylpyrazol-3-yl)oxybenzonitrile], for which the IC50 is 10 to 1000 nM.

Consider `Cn1nc(-c2ccccc2)cc1Oc1cc(C#N)ccc1-c1ccc(CCN)nn1` [compound 312, 4-[6-(2-aminoethyl)pyridazin-3-yl]-3-(2-methyl-5-phenylpyrazol-3-yl)oxybenzonitrile], for which the IC50 was under 10 nM.

As for `Cn1nc(-c2nccs2)cc1Oc1cc(C#N)ccc1-c1ccc(CCN)cn1` [compound 390, 4-[5-(2-aminoethyl)pyridin-2-yl]-3-[2-methyl-5-(1,3-thiazol-2-yl)pyrazol-3-yl]oxybenzonitrile], the IC50 is under 10 nM.

Consider `Cn1nc(-c2ccccc2)cc1Oc1cc(C#N)ccc1-c1ccc2c(CN)noc2c1` [compound 457, 4-[3-(aminomethyl)-1,2-benzoxazol-6-yl]-3-(2-methyl-5-phenylpyrazol-3-yl)oxybenzonitrile], for which the IC50 was over 1000 nM.

With `Cn1nc(C2CC2)cc1Oc1cc(C#N)ccc1-c1ccc(C(C)(C)N)cn1` [compound 400, 4-[5-(2-aminopropan-2-yl)pyridin-2-yl]-3-(5-cyclopropyl-2-methylpyrazol-3-yl)oxybenzonitrile], the IC50 is 10 to 1000 nM.

With `N#Cc1ccc(-c2ncc(CN)cn2)c(Oc2nnc(N3CCC3)s2)c1` [compound 720, 4-[5-(aminomethyl)pyrimidin-2-yl]-3-[[5-(azetidin-1-yl)-1,3,4-thiadiazol-2-yl]oxy]benzonitrile], the IC50 is over 1000 nM.

As for `Cn1nc(C2CC2)cc1Oc1cc(C#N)ccc1-c1cccc2c(N)nccc12` [compound 453, 4-(1-aminoisoquinolin-5-yl)-3-(5-cyclopropyl-2-methylpyrazol-3-yl)oxybenzonitrile], the IC50 is over 1000 nM.

On to `Cc1nc(Oc2cc(C#N)ccc2-c2ccc([C@H](O)CN)cn2)cc(-c2ccccc2)n1` [compound 525, 4-[5-[(1S)-2-amino-1-hydroxyethyl]pyridin-2-yl]-3-(2-methyl-6-phenylpyrimidin-4-yl)oxybenzonitrile], for which the IC50 is under 10 nM.

On to `Cc1cc(Oc2cc(C#N)ccc2-c2ncc(OCCN)cn2)cc(N2CCOCC2)n1` [compound 387, 4-[5-(2-aminoethoxy)pyrimidin-2-yl]-3-(2-methyl-6-morpholin-4-ylpyridin-4-yl)oxybenzonitrile], for which the IC50 was 10 to 1000 nM.

On to `CN(C)c1cc(Cc2cc(C#N)ccc2-c2ncc(CN)cn2)n(C)n1` [compound 1209, 4-[5-(aminomethyl)pyrimidin-2-yl]-3-[[5-(dimethylamino)-2-methylpyrazol-3-yl]methyl]benzonitrile], for which the IC50 is 10 to 1000 nM.

As to `Cn1nc(N2CCCC2)cc1Oc1cc(C#N)ccc1-c1ncc(CCN)cn1` [compound 628, 4-[5-(2-aminoethyl)pyrimidin-2-yl]-3-(2-methyl-5-pyrrolidin-1-ylpyrazol-3-yl)oxybenzonitrile], the IC50 is under 10 nM.

As to `Cc1nc(-c2ccccc2)cn1Cc1cc(C#N)ccc1-c1ccc(CCN)cn1` [compound 1150, 4-[5-(2-aminoethyl)pyridin-2-yl]-3-[(2-methyl-4-phenylimidazol-1-yl)methyl]benzonitrile], the IC50 was under 10 nM.

For `Cc1nc(Oc2cc(C#N)ccc2-c2ccc(CC(C)(C)N)cc2)cc(N2CCOCC2)n1` [Compound 247, 4-[4-(2-amino-2-methylpropyl)phenyl]-3-(2-methyl-6-morpholin-4-ylpyrimidin-4-yl)oxybenzonitrile], the IC50 is under 10 nM.

Take `NCCc1cnc(-c2ccc(Cl)cc2Oc2cnn(-c3ccccn3)c2)nc1` [compound 1024, 2-[2-[4-chloro-2-(1-pyridin-2-ylpyrazol-4-yl)oxyphenyl]pyrimidin-5-yl]ethanamine]: the IC50 was 10 to 1000 nM.

`Cn1nc(-c2ccnn2C)cc1Oc1cc(C#N)ccc1-c1ncc(CN)cn1` [compound 945, 4-[5-(aminomethyl)pyrimidin-2-yl]-3-[2-methyl-5-(2-methylpyrazol-3-yl)pyrazol-3-yl]oxybenzonitrile]: the IC50 is under 10 nM.

For `NCCc1cnc(-c2ccc(F)cc2C(=O)c2cnn(C3CCC3)c2)nc1` [compound 1108, [2-[5-(2-aminoethyl)pyrimidin-2-yl]-5-fluorophenyl]-(1-cyclobutylpyrazol-4-yl)methanone], the IC50 is 10 to 1000 nM.

Values taken from US20230167073A1 (Teijin Pharma Limited, priority 2020, published 2023).
